Read-outs that look alike come from different tables or passages of the source.
Experiments:
coccidiose = assay: Influence on Coccidiose infection (chickens in a shed infected with coccidiose); settings: 1100 mg per kilogram feed, till day 39
Source text: 496 days old ROSS® 308 meat chickens were used for this test and were placed in a shed that was infected with coccidiose. The test lasted from the first day of life of the chickens till day 39. […] The uncertainty of the measurement value is lower than 0.05.

villi = settings: 1100 mg per kilogram feed; for average length of the villi: 5 chickens
Procedure: 20 days old ROSS® 308 meat chickens were used for this test. The test lasted from the first day of life of the chickens till day 39. […] The average length of the villi of 5 chickens was measured for each group after 14 days. […] The average length of the villi of 5 chickens was measured for each group after 39 days. […] The uncertainty of the measurement value is lower than 0.05.
(§1) The design of the test was for the rest similar to the one described above.

[1] = 1100 mg per kilogram feed, first day of life till day 39
Source text: 396 days old ROSS® 308 meat chickens were used for this test. The test lasted from the first day of life of the chickens till day 39. […] The uncertainty of the measurement value is lower than 0.05.
as §1

Procedure for CD3+ T-cells: 20 days old ROSS® 308 meat chickens were used for this test. The test lasted from the first day of life of the chickens till day 14. […] On day 14, the average amount of CD3+ T-cells was determined for both groups.

SMILES | increase of the surface percentage for CD3+ versus control group (CD3+ T-cells; day 14, 1100 mg per kilogram feed) [%] | surface percentage for CD3+ (CD3+ T-cells; day 14, test group, 1100 mg per kilogram feed) [surface percentage] | animals that died, supplemented group versus control (coccidiose) | decrease of the FCR value versus control group (coccidiose) [%] | FCR value (coccidiose; test group) | increase of the length of the villi compared to the control group (villi; after 14 days) [%] | average length of the villi (villi; after 14 days) [μm] | increase of the length of the villi compared to the control group (villi; after 39 days) [%] | average length of the villi (villi; after 39 days) [μm] | decrease of the FCR value with respect to the control group [1] [%] | FCR value ([1]; test group) | change of the surface percentage for CD3+ compared to the control group (in words) (CD3+ T-cells; similar design, added to the feed)
CCCC(=O)[O-].C[N+](C)(C)CCO [choline butyrate] | 27 | 23 | more animals died | 13 | 2.22 | 7 | 779 | 21 | 1231 | 5 | 1.57 | 
CCCC(=O)OCC[N+](C)(C)C [butyrylcholine, (N,N,N-trimethyl)-2-ammoniumethylbutanoate] |  |  |  |  |  |  |  | 21 |  | 5 |  | increase

Reference: patent US11642322B2, “Food supplement and composition comprising choline butyrate salt and/or butyrylcholine” (A[…], priority 2016, dated 2023)
